# Data as given in patent publication US20180186742A1, “PICOLINAMIDES AS FUNGICIDES” (Dow AgroSciences LLC, priority 2017, published 2018).
# Read-outs that look alike come from different tables or passages of the source.
# How the values were obtained:
# Format in all cases: in vivo
# Phakopsora pachyrhizi = assay: Asian soybean rust (PHAKPA), disease control on soybean seedlings; conditions: High volume application at 25 ppm
# Method: Technical grades of materials were dissolved in acetone, which were then mixed with nine volumes of water containing 0.011% Tween 20. The fungicide solutions were applied onto soybean seedlings using an automated booth sprayer to run-off. All sprayed plants were allowed to air dry prior to further handling.
# Soybean plants (variety Williams 82) were grown in soil-less Metro mix, with one plant per pot. Two week old seedlings were used for testing. Plants were inoculated either 3 days prior to or 1 day after fungicide treatments. Plants were incubated for 24 h in a dark dew room at 22° C. and 100% relative humidity then transferred to a growth room at 23° C. for disease to develop. Disease severity was assessed on the sprayed leaves.
# Puccinia triticina = assay: Wheat brown rust (PUCCRT), disease control on wheat seedlings; conditions: for pest or weed control at 121.5 g/ha: low volume application at 121.5 g/H; for pest or weed control at 100 ppm: high volume application at 100 ppm
# Outline: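 Compounds in acetone, diluted with nine volumes of water containing 110 ppm Triton X-100, sprayed to run-off on first-leaf Yuma wheat seedlings; track-spray tests used EC formulations with 0.1% Trycol 5941. Puccinia triticina spores applied before or after treatment. Overnight dark dew room at 22° C, 100% humidity, then greenhouse at 24° C.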
# Zymoseptoria tritici = assay: Leaf blotch of wheat (SEPTTR), disease control on wheat seedlings; conditions: for pest or weed control at 121.5 g/ha: low volume application at 121.5 g/H; for pest or weed control at 100 ppm: high volume application at 100 ppm
# Outline: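 Yuma wheat seedlings with the first leaf fully emerged were sprayed to run-off with compound in acetone plus nine volumes of water containing 110 ppm Triton X-100; track-spray tests used EC formulations with 0.1% Trycol 5941. Z. tritici inoculation came before or after treatment, followed by 100% RH dew periods and a 20 °C greenhouse. Percent control was calculated from severity versus untreated plants.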
# [1] = 24 h, 1 Day Protectant, read-out: PHAKPA 1DP disease control rating
# [2] = 72 h, 3 Day Curative, read-out: PHAKPA 3DC disease control rating
# [3] = 24 h, 1 Day Protectant, read-out: PUCCRT disease control, 1DP, LV activity
# [4] = 72 h, 3 Day Curative, read-out: PUCCRT disease control, 3DC, LV activity
# [5] = 24 h, 1 Day Protectant, read-out: SEPTTR disease control, 1DP, LV activity
# [6] = 72 h, 3 Day Curative, read-out: SEPTTR disease control, 3DC, LV activity
# [7] = 24 h, 1 Day Protectant, read-out: PUCCRT disease control, 1DP, HV activity
# [8] = 72 h, 3 Day Curative, read-out: PUCCRT disease control, 3DC, HV activity
# [9] = 24 h, 1 Day Protectant, read-out: SEPTTR disease control, 1DP, HV activity
# [10] = 72 h, 3 Day Curative, read-out: SEPTTR disease control, 3DC, HV activity
# [11] = 24 h, 1 Day Protectant, wheat brown rust, read-out: PUCCRT 1DP disease control, LV activity
# [12] = 72 h, 3 Day Curative, wheat brown rust, read-out: PUCCRT 3DC disease control, LV activity
# [13] = 24 h, 1 Day Protectant, wheat leaf blotch, read-out: SEPTTR 1DP disease control, LV activity
# [14] = 72 h, 3 Day Curative, wheat leaf blotch, read-out: SEPTTR 3DC disease control, LV activity
Compound,pest or weed control at 100 ppm (Puccinia triticina; [7]) [%],pest or weed control at 100 ppm (Puccinia triticina; [8]) [%],pest or weed control at 100 ppm (Zymoseptoria tritici; [9]) [%],pest or weed control at 100 ppm (Zymoseptoria tritici; [10]) [%],pest or weed control at 121.5 g/ha (Puccinia triticina; [11]) [%],pest or weed control at 121.5 g/ha (Puccinia triticina; [12]) [%],pest or weed control at 121.5 g/ha (Zymoseptoria tritici; [13]) [%],pest or weed control at 121.5 g/ha (Zymoseptoria tritici; [14]) [%],other results
COc1ccnc(C(=O)N[C@@H](C)C(=O)O[C@@H](C)[C@@H](c2ccccc2)C(C)C)c1OCOC(C)=O [Compound 162],,,,,,,,,pest or weed control at 25 ppm (Phakopsora pachyrhizi; [1]): > 80%; pest or weed control at 25 ppm (Phakopsora pachyrhizi; [2]): < 80%; pest or weed control at 121.5 g/ha (Puccinia triticina; [3]): > 80%; pest or weed control at 121.5 g/ha (Puccinia triticina; [4]): > 80%; pest or weed control at 121.5 g/ha (Zymoseptoria tritici; [5]): < 80%; pest or weed control at 121.5 g/ha (Zymoseptoria tritici; [6]): > 80%
COc1ccnc(C(=O)N[C@@H](C)C(=O)O[C@@H](C)[C@H](c2ccccc2)C(C)C)c1OCOC(C)=O [Compound 164],,,,,,,,,pest or weed control at 25 ppm (Phakopsora pachyrhizi; [1]): > 80%; pest or weed control at 25 ppm (Phakopsora pachyrhizi; [2]): < 80%; pest or weed control at 121.5 g/ha (Puccinia triticina; [3]): > 80%; pest or weed control at 121.5 g/ha (Puccinia triticina; [4]): > 80%; pest or weed control at 121.5 g/ha (Zymoseptoria tritici; [5]): > 80%; pest or weed control at 121.5 g/ha (Zymoseptoria tritici; [6]): > 80%
COc1ccnc(C(=S)N[C@@H](C)C(=O)O[C@@H](C)[C@@H](c2ccccc2)C2CCCC2)c1OC(C)=O [Compound 177],,,,,,,,,pest or weed control at 25 ppm (Phakopsora pachyrhizi; [1]): > 80%; pest or weed control at 25 ppm (Phakopsora pachyrhizi; [2]): < 0%; pest or weed control at 121.5 g/ha (Puccinia triticina; [3]): < 80%; pest or weed control at 121.5 g/ha (Puccinia triticina; [4]): < 0%; pest or weed control at 121.5 g/ha (Zymoseptoria tritici; [5]): < 80%; pest or weed control at 121.5 g/ha (Zymoseptoria tritici; [6]): < 0%
COc1ccnc(C(=O)N[C@@H](C)C(=O)O[C@@H](C)[C@@H](c2ccc(F)cc2C)C(C)C)c1OC(C)=O [Compound 178],,,,,,,,,pest or weed control at 25 ppm (Phakopsora pachyrhizi; [1]): < 0%; pest or weed control at 25 ppm (Phakopsora pachyrhizi; [2]): < 80%; pest or weed control at 121.5 g/ha (Puccinia triticina; [3]): > 80%; pest or weed control at 121.5 g/ha (Puccinia triticina; [4]): < 80%; pest or weed control at 121.5 g/ha (Zymoseptoria tritici; [5]): < 0%; pest or weed control at 121.5 g/ha (Zymoseptoria tritici; [6]): < 80%
CCC(CC)[C@H](c1ccc(F)cc1C)[C@H](C)OC(=O)[C@H](C)NC(=O)c1nccc(OC)c1OC(C)=O [Compound 179],,,,,,,,,pest or weed control at 25 ppm (Phakopsora pachyrhizi; [1]): < 80%; pest or weed control at 25 ppm (Phakopsora pachyrhizi; [2]): < 80%; pest or weed control at 121.5 g/ha (Puccinia triticina; [3]): > 80%; pest or weed control at 121.5 g/ha (Puccinia triticina; [4]): < 0%; pest or weed control at 121.5 g/ha (Zymoseptoria tritici; [5]): > 80%; pest or weed control at 121.5 g/ha (Zymoseptoria tritici; [6]): > 80%
COc1ccnc(C(=O)N[C@@H](C)C(=O)O[C@@H](C)[C@@H](c2ccc(F)cc2C)C2CCCC2)c1OC(C)=O [Compound 180],,,,,,,,,pest or weed control at 25 ppm (Phakopsora pachyrhizi; [1]): < 80%; pest or weed control at 25 ppm (Phakopsora pachyrhizi; [2]): < 80%; pest or weed control at 121.5 g/ha (Puccinia triticina; [3]): > 80%; pest or weed control at 121.5 g/ha (Puccinia triticina; [4]): < 80%; pest or weed control at 121.5 g/ha (Zymoseptoria tritici; [5]): < 80%; pest or weed control at 121.5 g/ha (Zymoseptoria tritici; [6]): < 80%
COc1ccnc(C(=O)N[C@@H](C)C(=O)O[C@@H](C)[C@@H](c2ccc(F)cc2C)C2CCCCC2)c1OC(C)=O [Compound 181],,,,,,,,,pest or weed control at 25 ppm (Phakopsora pachyrhizi; [1]): < 0%; pest or weed control at 25 ppm (Phakopsora pachyrhizi; [2]): < 80%; pest or weed control at 121.5 g/ha (Puccinia triticina; [3]): < 80%; pest or weed control at 121.5 g/ha (Puccinia triticina; [4]): < 80%; pest or weed control at 121.5 g/ha (Zymoseptoria tritici; [5]): < 80%; pest or weed control at 121.5 g/ha (Zymoseptoria tritici; [6]): > 80%
COc1ccnc(C(=O)N[C@@H](C)C(=O)O[C@@H](C)[C@@H](c2ccc(F)cc2F)C(C)C)c1O [Compound 331],< 80,< 80,< 80,< 80,,,,,
COc1ccnc(C(=O)N[C@@H](C)C(=O)O[C@@H](C)[C@@H](c2ccc(C)cc2F)C(C)C)c1O [Compound 332],< 80,< 80,< 80,< 80,,,,,
COc1ccnc(C(=O)N[C@@H](C)C(=O)O[C@@H](C)[C@@H](c2ccc(Cl)cc2Cl)C(C)C)c1O [Compound 333],> 80,< 80,< 80,< 80,,,,,
COc1ccnc(C(=O)N[C@@H](C)C(=O)O[C@@H](C)[C@H](c2ccc3c(c2)OCO3)C(C)C)c1O [Compound 334],> 80,> 80,< 80,< 0,,,,,
COc1ccnc(C(=O)N[C@@H](C)C(=O)O[C@@H](C)[C@H](c2ccc(OC(F)(F)F)cc2)C(C)C)c1O [Compound 335],> 80,> 80,> 80,< 80,,,,,
COc1ccnc(C(=O)N[C@@H](C)C(=O)O[C@@H](C)[C@H](c2ccc(OC(C)C)cc2)C(C)C)c1O [Compound 336],> 80,< 80,< 80,< 80,,,,,
COc1ccnc(C(=O)N[C@@H](C)C(=O)O[C@@H](C)[C@H](c2ccccc2OC(C)C)C(C)C)c1O [Compound 337],> 80,> 80,< 80,< 0,,,,,
COc1ccc([C@H](C(C)C)[C@H](C)OC(=O)[C@H](C)NC(=O)c2nccc(OC)c2O)cc1 [Compound 338],> 80,> 80,< 80,< 80,,,,,
COc1ccnc(C(=O)N[C@@H](C)C(=O)O[C@@H](C)[C@H](c2c(F)cc(F)cc2F)C(C)C)c1O [Compound 341],> 80,> 80,> 80,> 80,,,,,
COc1ccnc(C(=O)N[C@@H](C)C(=O)O[C@@H](C)[C@H](c2c(F)cccc2Cl)C(C)C)c1O [Compound 343],> 80,> 80,> 80,> 80,,,,,
CCC(C)[C@@H](c1ccccc1C)[C@H](C)OC(=O)[C@H](C)NC(=O)c1nccc(OC)c1OC(C)=O (stereo partly shown) [Compound 384],,,,,> 80,> 80,> 80,> 80,
CCC(CC)[C@@H](c1ccccc1C)[C@H](C)OC(=O)[C@H](C)NC(=O)c1nccc(OC)c1OC(C)=O [Compound 385],,,,,> 80,> 80,> 80,> 80,
CCC(C)[C@@H](c1ccccc1C)[C@H](C)OC(=O)[C@H](C)NC(=O)c1nccc(OC)c1OC(=O)C(C)C (stereo partly shown) [Compound 386],,,,,> 80,> 80,< 80,> 80,
CCC(CC)[C@@H](c1ccccc1C)[C@H](C)OC(=O)[C@H](C)NC(=O)c1nccc(OC)c1OC(=O)C(C)C [Compound 387],,,,,> 80,< 80,< 80,> 80,
COc1ccnc(C(=O)N[C@@H](C)C(=O)O[C@@H](C)[C@H](c2c(F)cc(F)cc2F)C(C)C)c1OC(C)=O [Compound 388],,,,,> 80,> 80,> 80,> 80,
COc1ccnc(C(=O)N[C@@H](C)C(=O)O[C@@H](C)[C@H](c2ccc(Cl)cc2F)C(C)C)c1OC(C)=O [Compound 389],,,,,> 80,> 80,> 80,> 80,
COc1ccnc(C(=O)N[C@@H](C)C(=O)O[C@@H](C)[C@H](c2c(F)cccc2Cl)C(C)C)c1OC(C)=O [Compound 390],,,,,> 80,> 80,> 80,> 80,
COc1ccnc(C(=O)N[C@@H](C)C(=O)O[C@@H](C)[C@H](c2cccc(C)c2)C(C)C)c1OC(C)=O [Compound 391],,,,,> 80,< 80,< 80,< 80,
COc1ccnc(C(=O)N[C@@H](C)C(=O)O[C@@H](C)[C@H](c2cc(F)ccc2F)C(C)C)c1OC(C)=O [Compound 392],,,,,> 80,> 80,< 80,> 80,
